Test results published in patent publication US8841233B2, “Herbicidal compositions comprising 4-amino-3-chloro-5-fluoro-6-(4-chloro-2-fluoro-3-methoxyphenyl) pyridine-2-carboxylic acid or a derivative thereof and 4-hydroxyphenyl-pyruvate dioxygenase (HPPD) inhibitors” (Dow Agrosciences LLC, priority 2012, dated 2014).
“And” between values parts separate entries of the source, which are not always exact repeats. Equal entries are not always repeated.

Columns and labels:
ECHOR = assay: In-water applied weed control, transplanted paddy rice, greenhouse (Example II); type: in vivo, Echinochloa oryzoides (Ard.) Fritsch
Protocol: (§1) Evaluation of in-Water Applied Herbicidal Mixtures for Weed Control in Transplanted Paddy Rice
(§2) Weed seeds or nutlets of the desired test plant species were planted in puddled soil (mud) prepared by mixing a shredded, non-sterilized mineral soil (50.5 percent silt, 25.5 percent clay, and 24 percent sand, with a pH of about 7.6 and an organic matter content of about 2.9 percent) and water at a 1:1 volumetric ratio. The prepared mud was dispensed in 365 mL aliquots into 16-ounce (oz.) non-perforated plastic pots with a surface area of 86.59 square centimeters (cm^2) leaving a headspace of 3 centimeters (cm) in each pot. Mud was allowed to dry overnight prior to planting or transplanting. Rice seeds were planted in Sun Gro MetroMix® 306 planting mixture, which typically has a pH of 6.0 to 6.8 and an organic matter content of about 30 percent, in plastic plug trays. Seedlings at the second or third leaf stage of growth were transplanted into 840 mL of mud contained in 32-oz. non-perforated plastic pots with a surface area of 86.59 cm^2 4 days prior to herbicide application. The paddy was created by filling the headspace of the pots with 2.5 to 3 cm of water. When required to ensure good germination and healthy plants, a fungicide treatment and/or other chemical or physical treatment was applied. The plants were grown for 4-22 days in a greenhouse with an approximate 14 h photoperiod which was maintained at about 29′C during the day and 26° C. during the night. Nutrients were added as Osmocote® (19:6:12, N:P:K+ minor nutrients) at 2 g per 16-oz. pot and 4 g per 32-oz. pot. Water was added on a regular basis to maintain the paddy flood, and supplemental lighting was provided with overhead metal halide 1000-Watt lamps as necessary. The plants were employed for testing when they reached the first through fourth true leaf stage.
(§3) Treatments consisted of the acid or esters of 4-amino-3-chloro-5-fluoro-6-(4-chloro-2-fluoro-3-methoxy-phenyl)pyridine-2-carboxylic acid (compound A) each formulated as an SC (suspension concentrate) and various herbicidal components alone and in combination. Forms of compound A were applied on an acid equivalent basis.
(§4) Other herbicidal components were applied on an active ingredient basis and included 4-hydroxyphenyl pyruvate dioxygenase (HPPD)-inhibiting herbicides mesotrione formulated as Callisto®, sulcotrione formulated as Mikado®, pyrazolynate formulated as Sunbird® 10% GR, and benzobicyclon formulated as Benzobicyclon 3.5% or technical material.
(§5) Treatment requirements for each compound or herbicidal component were calculated based upon the rates being tested, the concentration of active ingredient or acid equivalent in the formulation, an application volume of 2 mL per component per pot, and an application area of 86.59 cm^2 per pot.
(§6) For formulated compounds, a measured amount was placed in an individual 100 or 200 mL glass vial and was dissolved in a volume of 1.25% (v/v) Agri-Dex® crop oil concentrate to obtain application solutions.
(§7) For technical grade compounds, a weighed amount was placed in an individual 100 to 200 mL glass vial and was dissolved in a volume of acetone to obtain concentrated stock solutions. […] The concentrated stock solutions obtained were diluted with an equivalent volume of an aqueous mixture containing 2.5% (v/v) crop oil concentrate so that the final application solutions contained 1.25% (v/v) crop oil concentrate.
(§8) Applications were made by injecting with a pipetter appropriate amounts of the application solutions, individually and sequentially, into the aqueous layer of the paddy. Control plants were treated in the same manner with the solvent blank. Applications were made so that all treated plant material received the same concentrations of acetone and crop oil concentrate.
(§9) The treated plants and control plants were placed in a greenhouse as described above and water was added as needed to maintain a paddy flood. […]

CYPRO = assay: as above; type: in vivo, Cyperus rotundus L.
Protocol: as §1, §2, §3, §4, §5, §6, §7, §8, §9

Structure (SMILES) | Visual Weed Control (%) - 22 DAA ECHOR Obs (ECHOR; 21.2 gae/ha) [%] | Visual Weed Control (%) - 20 DAA ECHOR Obs (ECHOR; 42.4 gae/ha) [%] | Visual Weed Control (%) - 22 DAA ECHOR Obs (ECHOR; 42.4 gae/ha) [%] | Visual Weed Control (%) - 20 DAA ECHOR Obs (ECHOR; 84.8 gae/ha) [%] | Visual Weed Control (%) - 22 DAA CYPRO Obs (CYPRO; 10.6 gae/ha) [%] | Visual Weed Control (%) - 22 DAA CYPRO Obs (CYPRO; 21.2 gae/ha) | Visual Weed Control (%) - 22 DAA CYPRO Obs (CYPRO; 42.4 gae/ha) [%] | Visual Weed Control (%) - 20 DAA ECHOR Obs (ECHOR; 4.38 gae/ha) [%] | Visual Weed Control (%) - 21 DAA ECHOR Obs (ECHOR; 4.38 gae/ha) [%] | Visual Weed Control (%) - 20 DAA ECHOR Obs (ECHOR; 8.75 gae/ha) [%] | Visual Weed Control (%) - 21 DAA ECHOR Obs (ECHOR; 8.75 gae/ha) [%] | Visual Weed Control (%) - 22 DAA ECHOR Obs (ECHOR; 8.75 gae/ha) [%] | Visual Weed Control (%) - 20 DAA ECHOR Obs (ECHOR; 17.5 gae/ha) [%] | Visual Weed Control (%) - 21 DAA ECHOR Obs (ECHOR; 17.5 gae/ha) [%] | Visual Weed Control (%) - 22 DAA ECHOR Obs (ECHOR; 17.5 gae/ha) [%] | Visual Weed Control (%) - 21 DAA ECHOR Obs (ECHOR; 96 gae/ha) [%] | Visual Weed Control (%) - 21 DAA CYPRO Obs (CYPRO; 17.5 gae/ha) [%]
COc1c(Cl)ccc(-c2nc(C(=O)O)c(Cl)c(N)c2F)c1F [Compound A Acid, 4-amino-3-chloro-6-(4-chloro-2-fluoro-3-methoxyphenyl)-5-fluoropyridine-2-carboxylic acid] | 20 | 18 | 40 | 33 | 0 | 40% and 60% | 90 | – | – | – | – | – | – | – | – | – | –
COc1c(Cl)ccc(-c2nc(C(=O)OCc3ccccc3)c(Cl)c(N)c2F)c1F [Compound A Benzyl Ester, benzyl ester of 4-amino-3-chloro-5-fluoro-6-(4-chloro-2-fluoro-3-methoxy-phenyl)pyridine-2-carboxylic acid] | – | – | – | – | – | – | – | 10 | 25 | 20 | 25 | 40 | 30 | 60 | 95 | 80 | 10
